According to ChEMBL document CHEMBL5233252, “Single and dual target inhibitors based on Bcl-2: Promising anti-tumor agents for cancer therapy” (Eur J Med Chem, 2020):
Where a SMILES comes first, the peptide text is derived from it.

Columns and labels:
[1] = target: T1, Apoptosis regulator Bcl-2 (Homo sapiens, UniProt P10415); assay: Inhibition of Flu-BakBH3 binding to recombinant GST-tagged Bcl-2 (unknown origin) incubated for 30 mins by competitive fluorescence polarization assay
[2] = target: T1, Apoptosis regulator Bcl-2; assay: Binding affinity to Bcl-2 (unknown origin) by ELISA analysis
[3] = target: T1, Apoptosis regulator Bcl-2; assay: Inhibition of Bcl-2 (unknown origin) by ELISA analysis
[4] = Inhibition of Bcl-2/Mcl-1 in human MCF7 cells; assay type: cell-based
[5] = target: T1, Apoptosis regulator Bcl-2; assay: Binding affinity to recombinant Bcl-2 (unknown origin) expressed in Escherichia coli BL21 (DE3) cells assessed as dissociation constant by MST analysis
[6] = target: T1, Apoptosis regulator Bcl-2; assay: Binding affinity to Bcl-2 (unknown origin) assessed as inhibition constant
[7] = target: T2, Induced myeloid leukemia cell differentiation protein Mcl-1 (Homo sapiens, UniProt Q07820); assay: Binding affinity to Mcl-1 (unknown origin) assessed as inhibition constant
Bcl-2-like protein 1 [8] = target: T3, Bcl-2-like protein 1 (Homo sapiens, UniProt Q07817); assay: Binding affinity to Bcl-xL (unknown origin) assessed as inhibition constant
Bcl-2-like protein 1 [9] = target: T3, Bcl-2-like protein 1; assay: Binding affinity to recombinant His-tagged human Bcl-xL expressed in Escherichia coli assessed as inhibition constant by SPR analysis
[10] = target: T1, Apoptosis regulator Bcl-2; assay: Inhibition of Flu-BakBH3 binding to GST-tagged Bcl-2 (unknown origin) preincubated for 10 mins followed by Flu-BakBH3 addition and measured after 30 mins by competitive fluorescence polarization assay
Bcl-2-like protein 2 = target: T4, Bcl-2-like protein 2 (Homo sapiens, UniProt Q92843); assay: Binding affinity to Bcl-w (unknown origin) assessed as inhibition constant by competitive fluorescence polarization assay
T4 sequence (Q92843 whole entry): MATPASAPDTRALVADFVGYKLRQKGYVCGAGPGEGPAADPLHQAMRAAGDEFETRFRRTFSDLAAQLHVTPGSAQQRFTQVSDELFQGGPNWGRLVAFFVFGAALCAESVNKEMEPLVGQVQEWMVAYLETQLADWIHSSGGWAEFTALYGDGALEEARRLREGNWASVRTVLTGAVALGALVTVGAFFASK

RS4-11 = assay: Induction of apoptosis in human RS4-11 cells; assay type: functional, cell-based
[11] = target: T2, Induced myeloid leukemia cell differentiation protein Mcl-1; assay: Binding affinity to Mcl-1 (unknown origin) assessed as inhibition constant by TR-FRET assay
[12] = Half-life in human; assay type: ADME
[13] = target: T1, Apoptosis regulator Bcl-2; assay: Binding affinity to recombinant His-tagged human Bcl-2 expressed in Escherichia coli assessed as inhibition constant by SPR analysis

T1 sequence (P10415 whole entry): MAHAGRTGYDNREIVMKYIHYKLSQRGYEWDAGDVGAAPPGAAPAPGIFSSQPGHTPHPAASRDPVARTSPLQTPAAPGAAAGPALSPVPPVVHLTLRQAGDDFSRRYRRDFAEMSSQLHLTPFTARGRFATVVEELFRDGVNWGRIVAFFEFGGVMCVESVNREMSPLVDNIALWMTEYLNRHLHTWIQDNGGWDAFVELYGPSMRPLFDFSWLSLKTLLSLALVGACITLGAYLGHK
T2 sequence (Q07820 whole entry): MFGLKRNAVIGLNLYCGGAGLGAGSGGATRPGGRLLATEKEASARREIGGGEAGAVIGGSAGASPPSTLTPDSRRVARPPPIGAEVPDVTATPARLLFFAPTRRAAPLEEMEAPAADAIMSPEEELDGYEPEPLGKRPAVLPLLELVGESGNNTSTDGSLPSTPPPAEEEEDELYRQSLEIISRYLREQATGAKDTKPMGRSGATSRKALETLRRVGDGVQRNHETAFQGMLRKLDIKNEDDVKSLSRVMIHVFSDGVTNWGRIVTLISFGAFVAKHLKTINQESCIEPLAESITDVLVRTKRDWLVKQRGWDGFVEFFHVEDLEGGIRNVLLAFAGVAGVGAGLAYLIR
T3 sequence (Q07817 whole entry): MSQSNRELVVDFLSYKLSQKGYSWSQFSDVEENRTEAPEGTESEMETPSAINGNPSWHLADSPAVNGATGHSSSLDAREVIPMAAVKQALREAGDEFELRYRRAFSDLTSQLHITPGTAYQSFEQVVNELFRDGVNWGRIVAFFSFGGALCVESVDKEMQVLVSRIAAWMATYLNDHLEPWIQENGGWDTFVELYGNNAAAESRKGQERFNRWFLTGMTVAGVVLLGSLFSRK

Question: For `CCOC(=O)C1=C(N)Oc2ccc(Br)cc2C1C(C#N)C(=O)OCC` (stereo not given), which IC50 [1] is on record?
Answer: 9 µM

Question: With `O=[N+]([O-])c1ccccc1Nc1nnc(-c2c[nH]c3ccccc23)o1` as the compound, how does the IC50 [2] read?
Answer: 4.27 µM

Question: For `CC(C)(C)c1ccc(C(=O)NCCN2C(=O)c3cccc4c(Sc5ccc(Br)cc5)ccc(c34)C2=O)cc1`, which IC50 [3] is on record?
Answer: 2110 nM

Question: And the IC50 [4]?
Answer: 7.9 µM

Question: With `COc1c(O)cc(O)c2c(=O)cc(-c3ccc(O)c(O)c3)oc12` as the compound, how does the Kd [5] read?
Answer: 36.1 µM

Question: With `CC1=C(C2=C(C)C(=O)C3C(C(C)C)=C(O)C(O)=CC3C2=O)C(=O)c2cc(O)c(O)c(C(C)C)c2C1=O` (stereo not given) as the compound, how does the Ki [6] read?
Answer: 35 nM

Question: What about the Ki [7] of the same compound?
Answer: 25 nM

Question: What about the Ki (Bcl-2-like protein 1 [8]) of the same compound?
Answer: 660 nM

Question: With `CCCCCCCCCCCCCCCC(=O)N[C@H](C(=O)N[C@@H](C)C(=O)N[C@@H](CCC(N)=O)C(=O)N[C@@H](CCC(=O)O)C(=O)N[C@@H](CCCNC(=N)N)C(=O)N[C@@H](CCCNC(=N)N)C(=O)N[C@H](C(=O)NCC(=O)N[C@@H](CC(=O)O)C(=O)N[C@@H](CCC(=O)O)C(=O)N[C@@H](Cc1ccccc1)C(N)=O)[C@@H](C)CC)[C@@H](C)CC` (HELM PEPTIDE1{[CCCCCCCCCCCCCCCC(=O)[*:2]].I.A.Q.E.R.R.I.G.D.E.F.[am]}$$$$V2.0) as the compound, how does the Ki (Bcl-2-like protein 1 [9]) read?
Answer: 22.2 nM

Question: For `Cc1cc2c(C(C)C)c(O)c(O)cc2c(O)c1-c1c(C)cc2c(C(C)C)c(O)c(O)cc2c1O` [APOGOSSYPOL], which EC50 [10] is on record?
Answer: 2800 nM

Question: With `CC1(C)CCC(c2ccc(Cl)cc2)=C(CN2CCN(c3ccc(C(=O)NS(=O)(=O)c4ccc(N[C@H](CCN5CCOCC5)CSc5ccccc5)c(S(=O)(=O)C(F)(F)F)c4)cc3)CC2)C1` [NAVITOCLAX] as the compound, how does the Ki (Bcl-2-like protein 2) read?
Answer: ≤ 1 nM

Question: Which results are given for `CC1(C)CCC(CN2CCN(c3ccc(C(=O)NS(=O)(=O)c4ccc(NCC5CCOCC5)c([N+](=O)[O-])c4)c(Oc4cnc5[nH]ccc5c4)c3)CC2)=C(c2ccc(Cl)cc2)C1` [VENETOCLAX]?
Answer: EC50 (RS4-11): 3 nM; Ki [11]: > 444 nM; half-life [12]: 1560 min

Question: For Ac-IAQERRIGDEF-NH2, which Ki [13] is on record?
Answer: 9.48 nM
